# Assay results taken from patent US8501911B2, “Methods of reducing inflammation and mucus hypersecretion” (Biomarck Pharmaceuticals, Ltd, priority 1999, dated 2013).
# Read-outs that look alike come from different tables or passages of the source. Residues, ends and D or L forms follow the SMILES beside them. *: point of attachment. Myristoyl = CCCCCCCCCCCCCC(=O)*
# Columns and labels:
# NHBE cells = assay: UTP-induced mucin secretion from NHBE cells (ELISA); format: cell-based, human; conditions: for Mucin secretion, % of control levels: co-incubation with 0.1 mM UTP 45 min
# Method: In Results-I-1D, NHBE cells were preincubated with the indicated inhibitor for 15 min and then stimulated with 100 μM UTP for 2 h. Secreted mucin in response to the treatment was collected and assayed by ELISA. Data are presented as mean±S.E. (n=6 at each point).
# UTP is a well defined pathophysiologically relevant mucin secretagogue. Lethem ct al., Am. J. Respir. Cell Mol. Biol. 9, 315-322 (1993). […] To determine whether PKC and PKG were involved in regulation of mucin secretion in response to a pathophysiological stimulus, effects of PKC/PKG inhibitors on UTP-induced mucin secretion were investigated. NHBE cells were preincubated with various inhibitors for 15 min and then exposed to UTP (100 μM) plus the inhibitor for 2 h. The secreted mucin was measured by ELISA. […] Apparently, mucin secretion in NHBE cells may be regulated by a signaling mechanism involving both PKC and PKG.
# Peptide Blocking Studies—NHBE cells were preincubated with either the MANS or the RNS peptide (1-100 μM) for 15 min, and then PMA (100 nM)+8-Br-cGMP (1 μM) or UTP (100 μM) was added, and cells were incubated for an additional 15 min or 2 h. respectively. Mucin secretion was measured by ELISA and experimental results are designated as Results-I-2B-1 and Results-I-2B-2, as follows.
# PP2A is an essential component of the mucin secretory pathway. NHBE cells were preincubated with the indicated concentration of fostriecin, okadaic acid (500 nM), or medium alone for 15 min and then stimulated with PMA (100 nM)+8-Br-cGMP (1 μM) for 15 min or with UTP (100 μM) for 2 h. Secreted mucin was measured by ELISA. […] Thus, dephosphorylation of MARCKS by a PKG-activated PP2A appears to be an essential component of the signaling pathway leading to mucin granule exocytosis.
# Measurement of Mucin Secretion by ELISA—Before collection of “base line” and “test” mucin samples, the accumulated mucus at the apical surface of the cells was removed by washing with phosphate-buffered saline, pH 7.2. To collect the base-line secretion, cells were incubated with medium alone, and secreted mucin in the apical medium was collected and reserved. Cells were rested for 24 h and then exposed to medium containing the selected stimulatory and/or inhibitory reagents (or appropriate controls), after which secreted mucin was collected and reserved as the test sample. Incubation times for the base line and the test were the same but varied depending on the test reagent utilized. Both base line and test secretions were analyzed by ELISA using an antibody capture method as known in the art. See, e.g., Harlow et al., Antibodies: A Laboratory Manual, pp. 570-573, Cold Spring Harbor Laboratory, Cold Spring Harbor, N.Y. (1988). The primary antibody for this assay was 17Q2 (Babco, Richmond, Calif.), a monoclonal antibody that reacts specifically with a carbohydrate epitope on human airway mucins. The ratio of test/base-line mucin, which is similar to a “secretory index”, was used to quantify mucin secretion, allowing each culture dish to serve as its own control and thus, minimizing deviation caused by variability among culture wells. Wright et al., Am. J. Physiol. 271, L854-L861 (1996). Levels of mucin secretion were reported as percentage of the medium control.
# These experiments were carried out similarly to those described in Example 7. To test for stimulated secretion, the cells were exposed apically and basolaterally to uridine 5′-triphosphate (UTP) at a concentration of 0.1 mM in media. Cells were pre-incubated for 15 minutes with the MANS peptide and test cultures were then co-incubated with the MANS peptide and UTP for 45 minutes.
# NHBE cells were pre-incubated with okadaic acid (500 nM) for 15 min at 37° C./5% CO2, then stimulated with PMA (100 nM)+8-Br-cGMP (1 μM) for 15 min, or with UTP (0.1 mM) for 2 hours. Secreted mucin in the apical medium was collected and assayed by ELISA. […]
# human neutrophils = assay: Human neutrophil chemotactic migration assay; format: cell-based; conditions: test peptide 50 μM; for Neutrophil Migration (% Inhibition), LTB4: LTB4 100 nM; for Neutrophil Migration (% Inhibition), LTB4 / Neutrophil Migration (% Inhibition), fMLP: 0 = inactive; for Neutrophil Migration (% Inhibition), PAF: PAF 100 nM; for Neutrophil Migration (% Inhibition), fMLP: fMLP 100 nM
# Method: Human neutrophils were isolated from heparinized whole blood collected from healthy adult donors via cephalic venipuncture by a slightly modified method as described by Akasaki et al., 1999 (Akasaki T, Koga H, and Sumimoto H., Phosphoinositide 3-kinase-dependent and -independent activation of the small GTPase Rac2 in human neutrophils, J. Biol. Chem. 274:18055-18059, 1999). The blood was mixed with dextran (final concentration 1.4% dextran) and then allowed to settle for 60 minutes, after which time the leukocyte rich plasma was collected and layered onto 5 mL of Ficoll-Paque PLUS in 15 ml, conical tubes. The plasma was centrifuged at 1800 rpm for 20 minutes at room temperature. The residual erythrocytes were lysed utilizing a hypotonic saline and the remaining neutrophils were re-suspended in Hank's balanced salt solution containing 20 mM HEPES and 8.9 mM sodium bicarbonate without calcium or magnesium (HBSS), yielding neutrophils that were greater than 98% pure and greater than 99% viable.
# Neutrophil migration assay was performed according to the method described by Frevert C W, Wong V A, Goodman R B, Goodwin R, and Martin T R., Rapid fluorescence-based measurement of neutrophil migration in vitro, J. Immunol. Methods, 213:41-52, 1998. Human neutrophils were labeled with the fluorescent dye calcein for 30 minutes at room temperature. Cells were then washed and resuspended in a migration buffer containing HBSS with 2% FCS. Cells were treated with buffer alone or with the indicated test peptide (50 μM) for 30 minutes at 37° C. Treated cells (1×10^4 cells) were then placed on the upper side of a ChemoTx® chemotaxis plate (Neuroprobe, Gaithersburg, Md.) membrane (2 μm pore size). Lower wells of the plate were filled with migration buffer alone or with buffer containing fMLP (100 nM), LTB4 (100 nM), or PAF (100 nM). Wells containing 1×10^4 labeled cells were used as standards to calculate migration percentage. Cells were allowed to migrate for 1 hour at 37° C. After incubation, cells on the top of the filter were washed away with PBS. Followed by this, 0.5 mM EDTA was added to the top of the filter for 5 min to detach adherent cells and the membrane was again washed. The plate was then centrifuged at 1000 rpm for 1 min. The filter was removed and the fluorescence was measured in the lower wells (485 nm excitation, 530 nm emission wavelength) using an fMax fluorescence plate reader (Molecular Devices, Sunnyvale, Calif.). Percent migration was determined by dividing the fluorescence of each well by the fluorescence of the standard wells containing 1×10^4 labeled cells. A lesser number of migrated neutrophils in the bottom compartment is indicative of the test peptide being an inhibitor of inflammation.
# [1] = peptide 1 μM, 15 min preincubation, then UTP 100 μM 2 h
# [2] = peptide 100 μM, 15 min preincubation, then UTP 100 μM 2 h
# [3] = test agent 10 μM, 15 min preincubation, then UTP 100 μM 2 h
compound,measurement,setting,value
CCCCCCCCCCCCCC(=O)NCC(=O)N[C@@H](C)C(=O)N[C@@H](CCC(N)=O)C(=O)N[C@@H](Cc1ccccc1)C(=O)N[C@@H](CO)C(=O)N[C@@H](CCCCN)C(=O)N[C@H](C(=O)N[C@@H](C)C(=O)N[C@@H](C)C(=O)N[C@@H](CCCCN)C(=O)NCC(=O)N[C@@H](CCC(=O)O)C(=O)N[C@@H](C)C(=O)N[C@@H](C)C(=O)N[C@@H](C)C(=O)N[C@@H](CCC(=O)O)C(=O)N[C@@H](CCCNC(=N)N)C(=O)N1CCC[C@H]1C(=O)NCC(=O)N[C@@H](CCC(=O)O)C(=O)N[C@@H](C)C(=O)N[C@@H](C)C(=O)N[C@H](C(=O)N[C@@H](C)C(=O)O)C(C)C)[C@@H](C)O [MANS peptide] (Myristoyl-GAQFSKTAAKGEAAAERPGEAAVA-OH; C-terminus assumed),Mucin secretion as % of the level observed with 0.1 mM UTP absent MANS peptide,NHBE cells; peptide 1 μM,about 90%
same,"Mucin secretion, % of control levels","NHBE cells; peptide 1 μM, 15 min preincubation",146%
same,Mucin secretion as percent of control,NHBE cells; [1],143%
same,Mucin secretion as % of the level observed with 0.1 mM UTP absent MANS peptide,NHBE cells; peptide 10 μM,about 80%
same,"Mucin secretion, % of control levels","NHBE cells; peptide 10 μM, 15 min preincubation",128%
same,Mucin secretion as % of the level observed with 0.1 mM UTP absent MANS peptide,NHBE cells; peptide 100 μM,about 29%
same,"Mucin secretion, % of control levels","NHBE cells; peptide 100 μM, 15 min preincubation",46%
same,Mucin secretion as percent of control,NHBE cells; [2],46%
same,Mucin secretion as percent of control,NHBE cells; [3],125%
same,"Neutrophil Migration (% Inhibition), LTB4",human neutrophils,91.8%
same,"Neutrophil Migration (% Inhibition), PAF",human neutrophils,86.4%
same,"Neutrophil Migration (% Inhibition), fMLP",human neutrophils,90.0%
"CCCCCCCCCCCCCC(=O)NCC(=O)N[C@H](C(=O)N[C@@H](C)C(=O)N1CCC[C@H]1C(=O)N[C@@H](C)C(=O)N[C@@H](C)C(=O)N[C@@H](CCC(=O)O)C(=O)NCC(=O)N[C@@H](C)C(=O)NCC(=O)N[C@@H](C)C(=O)N[C@@H](CCC(=O)O)C(=O)N[C@H](C(=O)N[C@@H](CCCCN)C(=O)N[C@@H](CCCNC(=N)N)C(=O)N[C@@H](C)C(=O)N[C@@H](CO)C(=O)N[C@@H](C)C(=O)N[C@@H](CCC(=O)O)C(=O)N[C@@H](C)C(=O)N[C@@H](CCCCN)C(=O)N[C@@H](CCC(N)=O)C(=O)N[C@@H](C)C(=O)N[C@@H](Cc1ccccc1)C(=O)O)C(C)C)[C@@H](C)O [RNS peptide, reference compound] (Myristoyl-GTAPAAEGAGAEVKRASAEAKQAF-OH; C-terminus assumed)",Mucin secretion as percent of control,NHBE cells; [1],154%
same,Mucin secretion as percent of control,NHBE cells; [2],158%
same,Mucin secretion as percent of control,NHBE cells; [3],155%
same,"Neutrophil Migration (% Inhibition), LTB4",human neutrophils,0%
same,"Neutrophil Migration (% Inhibition), PAF",human neutrophils,62.1%
same,"Neutrophil Migration (% Inhibition), fMLP",human neutrophils,0.7%
"CCCCCCCCCCCCCC(=O)NCC(=O)N[C@@H](C)C(=O)N[C@@H](CCC(N)=O)C(=O)N[C@@H](Cc1ccccc1)C(=O)N[C@@H](CO)C(=O)N[C@@H](CCCCN)C(=O)N[C@H](C(=O)N[C@@H](C)C(=O)N[C@@H](C)C(=O)N[C@@H](CCCCN)C(=O)NCC(=O)N[C@@H](CCC(=O)O)C(=O)O)[C@@H](C)O [SEQ ID NO: 13, N-myristoyl-GAQFSKTAAKGE] (Myristoyl-GAQFSKTAAKGE-OH; C-terminus assumed)","Neutrophil Migration (% Inhibition), LTB4",human neutrophils,82.7%
same,"Neutrophil Migration (% Inhibition), PAF",human neutrophils,85.7%
same,"Neutrophil Migration (% Inhibition), fMLP",human neutrophils,81.8%
"CCCCCCCCCCCCCC(=O)NCC(=O)N[C@@H](C)C(=O)N[C@@H](CCC(N)=O)C(=O)N[C@@H](Cc1ccccc1)C(=O)N[C@@H](CO)C(=O)N[C@@H](CCCCN)C(=O)N[C@H](C(=O)N[C@@H](C)C(=O)N[C@@H](C)C(=O)N[C@@H](CCCCN)C(=O)O)[C@@H](C)O [SEQ ID NO: 15, N-myristoyl-GAQFSKTAAK] (Myristoyl-GAQFSKTAAK-OH; C-terminus assumed)","Neutrophil Migration (% Inhibition), LTB4",human neutrophils,85.5%
same,"Neutrophil Migration (% Inhibition), PAF",human neutrophils,87.2%
same,"Neutrophil Migration (% Inhibition), fMLP",human neutrophils,88.6%
C[C@@](O)(/C=C/[C@H]1CC=CC(=O)O1)[C@@H](C[C@@H](O)\C=C/C=C\C=C\CO)OP(=O)(O)O [fostriecin],activity at 0.01 µM,"NHBE cells; Homo sapiens, NHBE, inhibitor 10 nM, 15 min preincubation, then UTP 100 μM 2 h, read-out: Mucin secretion as percent of control",152%
same,activity at 0.1 µM,"NHBE cells; Homo sapiens, NHBE, inhibitor 100 nM, 15 min preincubation, then UTP 100 μM 2 h, read-out: Mucin secretion as percent of control",134%
same,activity at 0.5 µM,"NHBE cells; Homo sapiens, NHBE, inhibitor 500 nM, 15 min preincubation, then UTP 100 μM 2 h, read-out: Mucin secretion as percent of control",124%
C=C1[C@@H](O)[C@@H]2O[C@]3(CC[C@H](/C=C/[C@@H](C)[C@@H]4CC(C)=C[C@@]5(O[C@H](C[C@@](C)(O)C(=O)O)CC[C@H]5O)O4)O3)CC[C@H]2O[C@@H]1[C@@H](O)C[C@H](C)[C@H]1O[C@@]2(CCCCO2)CC[C@H]1C [okadaic acid],activity at 0.5 µM,"NHBE cells; Homo sapiens, NHBE, read-out: Mucin secretion as percent of control, inhibitor 500 nM, 15 min preincubation, then UTP 100 μM 2 h",112%
same,Mucin secretion as percent of control,"NHBE cells; inhibitor 500 nM, 15 min preincubation, then UTP 100 μM 2 h",110%
same,Reduction in mucin secretion level from UTP-stimulated level,"NHBE cells; inhibitor 500 nM, UTP 0.1 mM 2 h",31%
TNF-α,"Mucin secretion level, % of control","NHBE cells; TNF-α 10 ng/ml 4 h, then UTP 0.1 mM 2 h",191%
